Test results published in patent publication US10775375B2, “Methods for identifying modulators of calcium-sensing receptors” (MARS, INCORPORATED, priority 2014, dated 2020).
Where two headings read alike, the source gives them in different places.

Molecular target: T1, feline calcium-sensing receptor (fCaSR) (Felis catus, UniProt C7FF08, X1044R)
T1 sequence (C7FF08 1-1081 X1044R): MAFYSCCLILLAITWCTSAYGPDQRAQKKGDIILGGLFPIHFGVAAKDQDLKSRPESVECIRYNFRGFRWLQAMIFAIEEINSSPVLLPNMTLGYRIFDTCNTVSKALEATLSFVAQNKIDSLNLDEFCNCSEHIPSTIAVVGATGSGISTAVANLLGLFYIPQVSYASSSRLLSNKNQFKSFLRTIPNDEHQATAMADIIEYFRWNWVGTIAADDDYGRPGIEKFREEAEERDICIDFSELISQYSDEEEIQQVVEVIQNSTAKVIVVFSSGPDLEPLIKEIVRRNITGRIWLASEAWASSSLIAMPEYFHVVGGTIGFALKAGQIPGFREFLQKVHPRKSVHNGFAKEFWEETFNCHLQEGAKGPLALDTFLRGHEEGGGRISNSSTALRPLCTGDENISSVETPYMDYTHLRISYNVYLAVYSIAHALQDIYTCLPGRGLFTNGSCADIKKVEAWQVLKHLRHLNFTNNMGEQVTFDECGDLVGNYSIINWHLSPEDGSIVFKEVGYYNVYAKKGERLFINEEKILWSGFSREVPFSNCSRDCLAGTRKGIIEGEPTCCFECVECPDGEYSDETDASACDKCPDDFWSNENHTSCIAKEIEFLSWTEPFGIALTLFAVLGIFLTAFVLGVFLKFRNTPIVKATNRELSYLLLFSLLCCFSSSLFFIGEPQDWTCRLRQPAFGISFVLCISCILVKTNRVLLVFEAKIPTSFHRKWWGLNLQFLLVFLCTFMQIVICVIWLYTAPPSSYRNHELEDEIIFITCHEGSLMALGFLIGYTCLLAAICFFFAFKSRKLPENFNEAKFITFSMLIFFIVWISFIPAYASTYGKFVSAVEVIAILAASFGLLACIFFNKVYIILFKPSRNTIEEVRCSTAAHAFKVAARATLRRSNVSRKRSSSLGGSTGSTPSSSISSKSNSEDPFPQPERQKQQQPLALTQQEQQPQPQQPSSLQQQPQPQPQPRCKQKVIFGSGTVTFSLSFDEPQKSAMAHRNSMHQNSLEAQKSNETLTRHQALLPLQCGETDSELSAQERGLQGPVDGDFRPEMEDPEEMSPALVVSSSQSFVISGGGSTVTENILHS
Experiment: In vitro cellular luminescence assay for activation of fCaSR (HEK T-Rex/natClytin clone K 5.1, FLIPR Tetra), agonist mode and PAM mode
Assay type: cell-based
Conditions: for CaSR agonists and PAMs (mode of action on CaSR): classification as agonist, PAM or not active
From the text: Summary. The full length coding sequence of the calcium-sensing receptor (CaSR, a GPCR (3, C or Glutamate family), naturally coupled to Gαq/11 and Gαi (ligand-directed signaling)) from Felis catus (fCaSR) having the sequence described by SEQ ID NO: 7 was synthesized and sub-cloned into suitable expression vectors. The cat CaSR expression constructs were stably transfected in two mammalian cell lines, the HEK-natClytin and the HEK T-Rex/natClytin, two cell lines that allow for detection of changes in intracellular calcium levels through luminescence. A pure selected clone (K 5.1) was used to analyze 12 CaSR ligands (including calcium as a reference agonist control) in a high-throughput screening (HTS) multi-plate test for agonist and positive allosteric modulator (PAM) effects.
A final pure selected clone (K 5.1) was analyzed in a HTS multi-plate test for agonist or positive allosteric modulator (PAM) effects of 12 CaSR ligands (including calcium as a reference agonist control). 10.000 cw of K 5.1 were seeded on poly-D-lys coated 384 well MTPs in medium containing 1 μg/mL of Doxycycline. Screening with the 12 ligands (including calcium control) was conducted 24 hours later. […] For each ligand that activated CaSR as an agonist or PAM, the EC50 value of the ligand was determined.
Detection of CaSR receptor activation. Transfected cells were analyzed for a response to a reference agonist (calcium) or various CaSR ligands by detecting Ca^2+ sensitive photoprotein luminescence. The experiments were performed in a 384 well format according to one of the following procedures: • 7.500 cw were plated on poly-D-lys coated 384 well microtiter plates (MTPs). 24 h later, medium was manually discarded and replaced with fresh medium containing 1 μg/mL of Doxycycline. Experiments were then carried out 48 h after seeding. • 10.000 cw were plated on poly-D-lys coated 384 well MTPs in medium containing 1 μg/mL of Doxycycline. Experiments were carried out 24 hrs later.
On the day of the experiment, medium was removed by plate overthrow and tapping on a paper towel. Cells were then incubated for 3-4 hrs at 37° C. with 10 μM coelenterazine dissolved in 2 mM Ca^2+ or Ca^2+-Free Tyrode's Buffer (20 μL). Cells were exposed to calcium control and/or ligand and the luminescence changes over a period of 1 minute (at 35.000 gain of sensitivity) were monitored using a FLIPR® Tetra screening system. For agonist evaluation, a single exposure protocol was applied (ligands 1º injection, 20 μL-2×), whereas for PAM evaluation a double injection protocol was applied as following: • 1° injection: ligands dose-response (20 μL-2×) • 2° injection: Reference agonist EC20 (20 μL-3×) • Data Analysis. FLIPR® Tetra measurements were analysed with Screenworks© software (Molecular Devices, Version 3.0.1.4) and data were exported as Maximum statistics of Absolute Response (RLU) calculated after compound injection. RLU is obtained applying “Subtract Bias on Sample n” (where n=Time point of compound injection). Mean and standard deviation values were calculated on the exported data with Excel software, and then values were used to create sigmoidal dose-response curves (variable slope) or histograms with GraphPad PRISM® software (Version 6). The obtained EC50/IC50 values were used to calculate EC50/[…] values according to the following formula: ECX=[(X/100−X)1/HillSlope]*EC50
Cell lines, Medium and Culture Conditions. The experiments were done using HEK-natClytin or HEK T-Rex/natClytin reporter cell lines that were generated by stable transfection of the photoprotein natClytin into HEK-293 or HEK-293 T-Rex (HEK T-Rex, Invitrogen) cell lines respectively.
For experimental conditions, cells were plated on poly-D-lys coated 384 well MTPs according to one of the following conditions: • 7.500 cw.

Compound: C[C@@H](NCCCc1cccc(C(F)(F)F)c1)c1cccc2ccccc12 [Cinacalcet]
- EC50: 0.001 mM
- CaSR agonists and PAMs (mode of action on CaSR): Cinacalcet (PAM)
- CaSR agonists and PAMs (mode of action on CaSR) (listed as cinacalcet): activated CaSR as PAMs

Compound: Poly-L-Arginine
- Agonist EC50 (agonist mode, single injection, HEK T-Rex/natClytin-fCaSR clone K 5.1, MAX dose 60 μg/mL): 4.6 µg/mL
- CaSR agonists and PAMs (mode of action on CaSR): Poly-L-Arginine (agonist)

Compound: O.O.[Ca+2].[Cl-].[Cl-] [Calcium (Ca^2+), Calcium chloride (dihydrate)]
- CaSR agonists and PAMs (mode of action on CaSR): (agonist)

Compound: NCCCNCCCCNCCCN [Spermine]
- CaSR agonists and PAMs (mode of action on CaSR): Spermine (agonist)

Compound: NCC1O[C@H](O[C@@H]2C(N)C[C@@H](N)C(O)C2O[C@@H]2O[C@H](CO)C(OC3O[C@@H](CN)C(O)C(O)[C@H]3N)C2O)C(N)C(O)[C@@H]1O (some centres unmarked) [Neomycin]
- EC50: 10 mM
- CaSR agonists and PAMs (mode of action on CaSR): Neomycin (agonist)

Compound: NCCCCN [Putrescine]
- CaSR agonists and PAMs (mode of action on CaSR): Putrescine (not active)

Compound: Calindol
- CaSR agonists and PAMs (mode of action on CaSR): Calindol (PAM)
- CaSR agonists and PAMs (mode of action on CaSR) (listed as calindol): activated CaSR as PAMs

Compound: NCCCCNCCCN [Spermidine]
- EC50: 1.3 mM
- CaSR agonists and PAMs (mode of action on CaSR): Spermidine (agonist)

Compound: Magnesium chloride (hexahydrate) [Magnesium (Mg^2+)]
- CaSR agonists and PAMs (mode of action on CaSR): (agonist)

Compound: NC(CCC(=O)NC(CS)C(=O)NCC(=O)O)C(=O)O [L-Glutathione, L-Glutathione (γ-Glu-Cys-Gly)]
- EC50 (agonist mode, single injection, HEK T-Rex/natClytin-fCaSR clone K 5.1, photoprotein luminescence, tested up to the MAX dose in c1/c2, read-out: Agonist EC50): 8.2 mM
- CaSR agonists and PAMs (mode of action on CaSR): L-Glutathione (agonist)
